# Test results taken from patent US20210323985A1, “SHIELDING AGENTS AND THEIR USE” (ENDOCYTE, INC., priority 2018, published 2021).
# Experiments:
# LNCaP tumors = experiment: Biodistribution of Ia-Lu with or without co-administered shielding agent in nude mice bearing LNCaP tumors; assay type: in vivo; conditions: 4 hours; 30 nmol/kg Ia-Lu; co-administration of 1 μmol/kg shielding agent, vs Ia-Lu alone; FIG. 9
# Experimental: FIG. 9 is a chart showing the biodistribution at 4 hours in nude mice bearing LNCaP tumors at 30 nmol/kg of Ia-Lu with or without co-administration of 1 μmol/kg of a shielding agent. […] In the graph for each tissue Ia-Lu alone (left bar), Ia-Lu+compound 1m (middle bar), Ia-Lu+compound 1d (S-enantiomer) (right bar).
# (§1) The shielding agents of the present disclosure were administered in combination with an imaging agent of the disclosure, and the biodistribution was analyzed.
# 22RV1 tumors = experiment: Biodistribution of 99mTc imaging conjugate 3a co-administered with a shielding agent in nude mice bearing 22RV1 tumors; assay type: in vivo; conditions: 4 hours; 30 nmol/kg 99mTc imaging conjugate 3a; co-administration of 1 μmol/kg shielding agent; FIG. 8
# Experimental: FIG. 8 is a chart showing the biodistribution at 4 hours in nude mice bearing 22RV1 tumors at 30 nmol/kg of ^99mTC imaging conjugate 3a with co-administration of 1 μmol/kg of a shielding agent. […] In the graph for each tissue ^99mTC imaging conjugate 3a+compound 1d (S-enantiomer) (left bar), ^99mTC imaging conjugate 3a+compound 1d (R-enantiomer) (right bar).
# as §1
SMILES,Ia-Lu tumor to kidney ratio (LNCaP tumors),99mTc imaging conjugate 3a tumor to kidney ratio (22RV1 tumors),activity of shielding agent (comparison of enantiomers) (22RV1 tumors)
CCCCOC(=O)CC[C@H](NC(=O)N[C@@H](CCC(=O)O)C(=O)O)C(=O)O [Compound 1m],enhanced,–,–
CCCCCCCCCCCCOC(=O)CC[C@@H](CP(=O)(O)O)C(=O)O [1d (S-enantiomer)],enhanced,enhanced,more active than the R-enantiomer
